Measurements from publication PMC8208785, “Therapeutic efficacy of novel memantine nitrate MN‐08 in animal models of Alzheimer’s disease” (Aging Cell, 2021).

Legend:
3×Tg‐AD mice = assay: Golgi staining of dendritic spines and Western blotting of synaptic markers in 3×Tg-AD mice; format: in vivo
Experimental: Triple transgenic 3×Tg‐AD mice were acquired from Jackson Laboratory and fostered in the Shenzhen Center for Disease Control and Prevention (Shenzhen, China). Eight‐month‐old 3×Tg‐AD mice were categorized into six groups: (1) 3×Tg‐AD +Vehicle group; (2) 3×Tg‐AD +MN‐08 (3 mg/kg) group; (3) 3×Tg‐AD +MN‐08 (6 mg/kg) group; (4) 3×Tg‐AD +MN‐08 (12 mg/kg) group; (5) 3×Tg‐AD +Memantine (Mem, 5 mg/kg) group; (6) 3×Tg‐AD +Donepezil (Done, 1.3 mg/kg, once daily) group; (7) Eight‐month‐old B6129SF2/J mice as a control group. MN‐08 and memantine were given twice daily (Done, once daily) by gastric gavage for 4 months from 8 months of age.
Golgi staining was used to determine hippocampal dendritic spine density by a Rapid Golgi Stain Kit (FD Neurotechnologies, Columbia, MD, USA) according to the manufacturer’s instructions. The brain was removed after the behavioral tests and incubated with impregnation solution in the dark at room temperature for 1 week. Impregnation solution was replaced with solution A and stored in the dark for 3 days. Brain sections (100 μm thickness) were placed on gelatin-coated microscope slides and then immersed in ddH2O. Solution B, Solution C, 80 % ethanol and xylene were used for 10 min, sequentially. The dendritic spines of hippocampal neurons were analyzed and counted in a blinded manner from six sections per animal by light microscopy (Olympus, Tokyo, Japan).
Western blotting analysis was performed as previously described with minor modifications (Huang, Li, & Nan, 2017). Proteins were extracted from hippocampal tissue and their concentrations determined by the BCA protein assay kit (Fdbio science, Hangzhou, China). The protein (20 μg) was separated on a 12% SDS-PAGE gel and then transferred to PVDF membranes. The membranes were blocked using 5 % nonfat dry milk for 2 h. […] Quantitative analysis of protein bands was conducted by the Carestream system (Carestream Health, Inc, USA).

[1] = toxicology study in beagle dogs (NOAEL); settings: dog, in vivo
Experimental: Forty healthy adult beagle dogs were randomly divided into 4 groups of 5 males (weighing 6.43-8.40 kg) and 5 females (weighing 5.39-6.77 kg) each: (1) Placebo group; (2) MN-08 (4 mg/kg) group; (2) MN-08 (12 mg/kg) group; (3) MN-08 (24 mg/kg) group. MN-08 tablets were administered to beagle dogs by gastric gavage for 4 weeks. The no observed adverse effect level (NOAEL) was examined according to previously described (Brownawell, Carmines, & Montesano, 2011).

APP/PS1 mice = assay: Aβ plaque staining and Aβ ELISA in brains of APP/PS1 mice; format: in vivo; settings: for amyloid plaque burdens (Aβ1‐42, Aβ1‐16 staining): prevention study, hippocampus and cortex
Experimental: APP/PS1 transgenic mice were purchased from Jackson Laboratory and reproduced in the Shenzhen Center for Disease Control and Prevention (Shenzhen, China). Two‐month‐old APP/PS1 mice were divided into four groups: (1) APP/PS1 + Vehicle group; (2) APP/PS1 + MN‐08 (6 mg/kg) group; (3) APP/PS1 + Memantine (Mem, 5 mg/kg) group; (4) APP/PS1 + Donepezil (Done, 1.3 mg/kg, once daily) group; (5) Two‐month‐old C57BL/6J mice as a control group. The APP/PS1 mice were administered drugs twice a day (Done, once daily) by gastric gavage from ages 2 to 8 months for 6 months successively. Control and vehicle groups received equal volumes of saline.
To evaluate the concentration of soluble and insoluble Aβ in AD mice, the hippocampus and cortex were homogenized in the lysate, which was then centrifuged at 12000 g for 30 min at 4°C. Supernatant samples were collected as soluble Aβ. Sediment of the cortex and hippocampus was resuspended with formic acid, incubated on ice for 60 min and then centrifuged at 12,000 g for 30 min at 4°C. The supernatant and Tris/NaH2PO4 buffer were mixed as insoluble Aβ. The concentration of Aβ was analyzed by ELISA kit of human amyloid β (R&D Systems, Minneapolis, MN, USA) following the manufacturer’s instructions.
Immunohistochemistry and immunofluorescence staining were carried out as previously described (Zhang et al., 2017). Coronal brain sections were incubated with […] sodium citrate (pH 6.0) and heated for 15 min. After cooling to room temperature, the sections were immersed in 3 % H2O2 for 10 min followed by blocking solution (10 % fetal bovine serum, 1 % bovine serum albumin and 0.1 % Triton X-100) for 1 h. Sections were then incubated with the following appropriate primary antibodies overnight at 4°C: anti-Aβ1-42 antibody (#ab10148, 1:1000, Abcam), anti-Aβ1-16 antibody (#803014, 1:1000, Abcam) and anti-NeuN antibody (#ab177487, 1:400, Abcam). After rinsing 3 times, the sections of immunohistochemistry staining were incubated with biotin-conjugated universal secondary antibody (Gene Tech, Shanghai, China). For immunofluorescence staining, the sections were incubated with appropriate secondary antibodies for 2 h at room temperature. Image J software was used to analyze the fluorescence intensity and cell counting from six slices at similar coronal positions of each animal; this was performed by a viewer blinded to the experimental group.

Row | SMILES | reduction of dendritic spines (hippocampus CA1, Golgi staining) (3×Tg‐AD mice; MN‐08 6 mg/kg) | expression of synaptic markers (SYP, PSD95, SYN I, SYN II, NR2A) (3×Tg‐AD mice; MN‐08 6 mg/kg, Western blot) | NOAEL at 4 weeks ([1]; both sexes, beagle, po) [mg/kg] | amyloid plaque burdens (Aβ1‐42, Aβ1‐16 staining) (APP/PS1 mice; MN‐08 6 mg/kg) | soluble and insoluble Aβ1–42 (ELISA) (APP/PS1 mice; MN‐08 6 mg/kg, hippocampal and cortical regions) | levels of Aβ1–40 (ELISA) (APP/PS1 mice; MN‐08 6 mg/kg, hippocampi and cortices) | reduction of dendritic spines (hippocampus CA1, Golgi staining) (3×Tg‐AD mice; memantine 5 mg/kg) | NOAEL ([1]; beagle dogs, memantine, regimen not stated, read-out: no observed adverse effect level (NOAEL)) [mg/kg] | amyloid plaque burdens (Aβ1‐42, Aβ1‐16 staining) (APP/PS1 mice; memantine 5 mg/kg)
1 | CCC12CC3CC(N)(C1)CC(CO[N+](=O)[O-])(C3)C2 (stereo not drawn) [MN‐08] | markedly reversed | significantly increased | 24 | obviously attenuated | significantly decreased | no significant difference | – | – | –
2 | CC12CC3CC(C)(C1)CC(N)(C3)C2 [memantine, 1‐amino‐3,5‐dimethyladamantane] | – | – | – | – | – | – | markedly reversed | 9 | obviously attenuated
